According to ChEMBL document CHEMBL1165990, “Semi-synthetic analogues of thiostrepton delimit the critical nature of tail region modifications in the control of protein biosynthesis and antibacterial activity” (Bioorg Med Chem, 2010):
Calls of active or inactive are those of the source. No cut-off for these calls is given here.

Experiments:
Staphylococcus aureus [1] = assay: Antibacterial activity against Staphylococcus aureus ATCC 6338 by NCCLS method; format: functional
Bacillus subtilis [2] = assay: Antibacterial activity against Bacillus subtilis ATCC 6633 by NCCLS method; format: functional
Escherichia coli [3] = assay: Antibacterial activity against Escherichia coli by NCCLS method; format: functional
Escherichia coli [4] = assay: Antibacterial activity against Escherichia coli assessed as inhibition of protein synthesis after 60 mins by luminescence assay; format: functional, organism-based
Escherichia coli [5] = assay: Antibacterial activity against Escherichia coli assessed as inhibition of protein synthesis at 0.1 to 0.4 uM after 60 mins by luminescence assay; format: functional, organism-based
[6] = Aqueous solubility of the compound; format: physicochemical; details: buffer
Staphylococcus aureus [7] = assay: Antibacterial activity against Staphylococcus aureus ATCC 6338 by disk diffusion assay; format: functional
Bacillus subtilis [8] = assay: Antibacterial activity against Bacillus subtilis ATCC 6633 by disk diffusion assay; format: functional
Escherichia coli [9] = assay: Antibacterial activity against Escherichia coli by disk diffusion assay; format: functional
Escherichia coli [10] = assay: Antibacterial activity against Escherichia coli assessed as inhibition of protein synthesis at 0.01 to 0.96 uM after 60 mins by luminescence assay; format: functional, organism-based

| SMILES | MIC (Staphylococcus aureus [1]) | MIC (Bacillus subtilis [2]) | MIC (Escherichia coli [3]) | inhibition (Escherichia coli [5]) | other results |
| --- | --- | --- | --- | --- | --- |
| C=C(NC(=O)c1csc(C2=N[C@@H]3c4csc(n4)[C@H]4NC(=O)c5csc(n5)[C@H]([C@](C)(O)[C@H](C)O)NC(=O)[C@H]5CSC(=N5)/C(=C/C)NC(=O)[C@H]([C@@H](C)O)NC(=O)c5csc(n5)[C@]3(CC2)NC(=O)[C@H](C)NC(=O)C(=C)NC(=O)[C@H](C)NC(=O)[C@H]([C@@H](C)CC)N[C@@H]2C=Cc3c([C@H](C)O)cc(nc3[C@H]2O)C(=O)O[C@@H]4C)n1)C(=O)NC(CSCCS(=O)(=O)O)C(N)=O (stereo partly drawn) | ≤ 2 µg/mL | ≤ 8 µg/mL | ≥ 128 µg/mL | Active | inhibition (Escherichia coli [4]): Dose-dependent effect; solubility [6]: Soluble |
| C=C(NC(=O)c1csc(C2=N[C@@H]3c4csc(n4)[C@H]4NC(=O)c5csc(n5)[C@H]([C@](C)(O)[C@H](C)O)NC(=O)[C@H]5CSC(=N5)/C(=C/C)NC(=O)[C@H]([C@@H](C)O)NC(=O)c5csc(n5)[C@]3(CC2)NC(=O)[C@H](C)NC(=O)C(=C)NC(=O)[C@H](C)NC(=O)[C@H]([C@@H](C)CC)N[C@@H]2C=Cc3c([C@H](C)O)cc(nc3[C@H]2O)C(=O)O[C@@H]4C)n1)C(=O)NC(CS[C@@H]1O[C@H](CO)[C@@H](O)[C@H](O)[C@H]1O)C(N)=O (stereo partly drawn) | – | – | – | – | MIC (Staphylococcus aureus [7]): ≥ 50 µg/mL; MIC (Bacillus subtilis [8]): ≥ 50 µg/mL; MIC (Escherichia coli [9]): ≥ 50 µg/mL |
| C=C(NC(=O)c1csc(C2=N[C@@H]3c4csc(n4)[C@H]4NC(=O)c5csc(n5)[C@H]([C@](C)(O)[C@H](C)O)NC(=O)[C@H]5CSC(=N5)/C(=C/C)NC(=O)[C@H]([C@@H](C)O)NC(=O)c5csc(n5)[C@]3(CC2)NC(=O)[C@H](C)NC(=O)C(=C)NC(=O)[C@H](C)NC(=O)[C@H]([C@@H](C)CC)N[C@@H]2C=Cc3c([C@H](C)O)cc(nc3[C@H]2O)C(=O)O[C@@H]4C)n1)C(=O)NC(CSC[C@@H](C)C(=O)N1CCC[C@H]1C(=O)O)C(N)=O (stereo in doubt; 3) | – | – | – | Active | – |
| C=C(NC(=O)c1csc(C2=N[C@@H]3c4csc(n4)[C@H]4NC(=O)c5csc(n5)[C@H]([C@](C)(O)[C@H](C)O)NC(=O)[C@H]5CSC(=N5)/C(=C/C)NC(=O)[C@H]([C@@H](C)O)NC(=O)c5csc(n5)[C@]3(CC2)NC(=O)[C@H](C)NC(=O)C(=C)NC(=O)[C@H](C)NC(=O)[C@H]([C@@H](C)CC)N[C@@H]2C=Cc3c([C@H](C)O)cc(nc3[C@H]2O)C(=O)O[C@@H]4C)n1)C(=O)NC(CSC[C@@H](C)C(=O)N1CCC[C@H]1C(=O)O)C(N)=O (stereo in doubt; 4) [listing 1 of 2 here] | ≤ 32 µg/mL | ≤ 32 µg/mL | ≥ 128 µg/mL | – | – |
| C=C(NC(=O)c1csc(C2=N[C@@H]3c4csc(n4)[C@H]4NC(=O)c5csc(n5)[C@H]([C@](C)(O)[C@H](C)O)NC(=O)[C@H]5CSC(=N5)/C(=C/C)NC(=O)[C@H]([C@@H](C)O)NC(=O)c5csc(n5)[C@]3(CC2)NC(=O)[C@H](C)NC(=O)C(=C)NC(=O)[C@H](C)NC(=O)[C@H]([C@@H](C)CC)N[C@@H]2C=Cc3c([C@H](C)O)cc(nc3[C@H]2O)C(=O)O[C@@H]4C)n1)C(=O)NC(CSC[C@@H](C)C(=O)N1CCC[C@H]1C(=O)O)C(N)=O (stereo in doubt; 4) [listing 2 of 2 here] | – | – | – | Active | – |
| C=C(NC(=O)C(=C)NC(=O)c1csc(C2=N[C@@H]3c4csc(n4)[C@H]4NC(=O)c5csc(n5)[C@H]([C@](C)(O)[C@@H](C)O)NC(=O)[C@H]5CSC(=N5)/C(=C/C)NC(=O)[C@H]([C@@H](C)O)NC(=O)c5csc(n5)[C@]3(CC2)NC(=O)[C@H](C)NC(=O)C(=C)NC(=O)[C@H](C)NC(=O)[C@H]([C@@H](C)CC)N[C@@H]2C=Cc3c([C@H](C)O)cc(nc3[C@H]2O)C(=O)O[C@@H]4C)n1)C(N)=O [THIOSTREPTON] | ≤ 0.0625 µg/mL | ≤ 0.25 µg/mL | ≥ 32 µg/mL | – | inhibition (Escherichia coli [10]): Active |
